pKi: −log10 of the molar value.

Consider 1 compound from paper PMC10468695, “The coenzyme B12 precursor 5,6-dimethylbenzimidazole is a flavin antagonist in Salmonella” (Microbial Cell, 2023).

The target of this test is T1, NAD(P)H:flavin reductase (Fre) (Salmonella enterica, UniProt Q9L6L9).
T1 construct: tag-less Fre (H6 tag cleaved by rTEV)
T1 sequence (Q9L6L9 2-233): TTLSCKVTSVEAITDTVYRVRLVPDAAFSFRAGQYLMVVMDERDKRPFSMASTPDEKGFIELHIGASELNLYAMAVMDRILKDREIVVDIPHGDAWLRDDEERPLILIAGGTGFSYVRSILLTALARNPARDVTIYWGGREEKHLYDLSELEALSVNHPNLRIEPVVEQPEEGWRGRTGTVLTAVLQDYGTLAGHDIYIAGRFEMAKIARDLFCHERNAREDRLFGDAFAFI
The test is described as follows: NADH oxidation assay at […] nm with purified Fre; competitive inhibition fit versus FMN. Format: biochemical.

For orientation: pKi means the Ki on a negative log10 scale, so that one unit is a factor of ten. Low readings indicate a large Ki, high ones a small Ki. In turn, `Cc1cc2nc[nH]c2cc1C` [DMB, 5,6-dimethylbenzimidazole] had a negative logarithm of the Ki (pKi) of 2.72.
